{
  "source": "ChEMBL document CHEMBL5331063",
  "about": "“Recent advances of β-catenin small molecule inhibitors for cancer therapy: Current development and future perspectives” (Eur J Med Chem, 2022)",
  "key": {"[1]": {"test_system": "SW480", "assay": "Antiproliferative activity against human SW480 cells assessed as inhibition of cell growth by MTS assay", "assay_type": "functional, cell-based"}, "[2]": {"test_system": "HT-29", "assay": "Antiproliferative activity against human HT-29 cells assessed as inhibition of cell growth by MTS assay", "assay_type": "functional, cell-based"}, "[3]": {"test_system": "HCT-116", "assay": "Antiproliferative activity against human HCT-116 cells assessed as inhibition of cell growth by MTS assay", "assay_type": "functional, cell-based"}, "[4]": {"biological_target": "T1, TCF4-CTNNB1 complex (Homo sapiens, UniProt P35222+Q9NQB0)", "T1 sequence (P35222 whole entry)": "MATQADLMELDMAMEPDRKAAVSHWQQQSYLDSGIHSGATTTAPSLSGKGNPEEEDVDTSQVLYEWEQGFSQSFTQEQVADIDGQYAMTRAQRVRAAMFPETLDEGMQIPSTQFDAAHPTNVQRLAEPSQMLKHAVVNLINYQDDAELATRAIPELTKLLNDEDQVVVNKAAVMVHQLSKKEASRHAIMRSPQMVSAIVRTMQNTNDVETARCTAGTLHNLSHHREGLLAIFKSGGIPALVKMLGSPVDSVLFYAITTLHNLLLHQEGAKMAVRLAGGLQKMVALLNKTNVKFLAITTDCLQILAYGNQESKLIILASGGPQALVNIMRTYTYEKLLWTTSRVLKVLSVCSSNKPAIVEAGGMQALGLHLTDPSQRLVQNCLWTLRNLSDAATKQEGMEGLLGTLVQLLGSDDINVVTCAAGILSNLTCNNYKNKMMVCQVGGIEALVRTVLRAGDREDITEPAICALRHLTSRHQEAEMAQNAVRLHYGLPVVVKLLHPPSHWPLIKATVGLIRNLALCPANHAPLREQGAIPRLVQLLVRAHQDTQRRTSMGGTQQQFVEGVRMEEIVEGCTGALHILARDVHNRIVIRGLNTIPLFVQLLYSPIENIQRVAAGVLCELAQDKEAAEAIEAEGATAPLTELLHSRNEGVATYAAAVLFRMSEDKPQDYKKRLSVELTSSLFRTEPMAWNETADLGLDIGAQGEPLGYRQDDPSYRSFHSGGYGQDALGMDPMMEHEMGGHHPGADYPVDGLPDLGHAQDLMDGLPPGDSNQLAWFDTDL", "T1 sequence (P15884 whole entry)": "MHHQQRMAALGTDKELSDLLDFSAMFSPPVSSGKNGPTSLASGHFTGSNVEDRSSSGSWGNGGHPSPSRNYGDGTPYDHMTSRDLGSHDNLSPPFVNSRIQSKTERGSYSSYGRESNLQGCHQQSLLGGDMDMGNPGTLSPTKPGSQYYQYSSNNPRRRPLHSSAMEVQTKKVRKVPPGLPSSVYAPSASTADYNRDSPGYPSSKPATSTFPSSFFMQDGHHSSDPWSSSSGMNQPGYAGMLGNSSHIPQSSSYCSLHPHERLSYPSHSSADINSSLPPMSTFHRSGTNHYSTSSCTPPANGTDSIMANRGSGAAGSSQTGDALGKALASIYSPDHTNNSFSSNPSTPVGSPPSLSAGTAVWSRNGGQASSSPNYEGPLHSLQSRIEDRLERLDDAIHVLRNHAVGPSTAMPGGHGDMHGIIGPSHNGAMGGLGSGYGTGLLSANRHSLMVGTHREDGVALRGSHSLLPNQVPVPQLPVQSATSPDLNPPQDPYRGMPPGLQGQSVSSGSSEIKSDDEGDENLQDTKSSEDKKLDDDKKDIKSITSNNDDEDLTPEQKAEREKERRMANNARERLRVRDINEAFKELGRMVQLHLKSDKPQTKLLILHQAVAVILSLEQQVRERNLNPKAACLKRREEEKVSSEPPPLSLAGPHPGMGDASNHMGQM", "assay": "Inhibition of human beta-Catenin/GST-tagged TCF4 (unknown origin) protein-protein interaction incubated for 2 hrs by ELISA assay", "assay_type": "protein-complex assay"}, "[5]": {"biological_target": "T1, TCF4-CTNNB1 complex", "assay": "Inhibition of beta-Catenin/GST-tagged TCF4 protein-protein interaction in human HCT-116 cells incubated for 24 hrs by immunoprecipitation assay", "assay_type": "cell-based"}, "[6]": {"test_system": "SW480", "assay": "Cytotoxicity against human SW480 cells incubated for 48 hrs by MTT assay", "assay_type": "functional"}, "[7]": {"test_system": "NCM460", "assay": "Cytotoxicity against human NCM460 cells incubated for 48 hrs by MTT assay", "assay_type": "toxicity, cell-based", "settings": "ncm460, 48 h"}, "[8]": {"test_system": "HCT-116", "assay": "Cytotoxicity against human HCT-116 cells incubated for 48 hrs by MTT assay", "assay_type": "functional"}, "[9]": {"biological_target": "T2, beta-catenin-B-cell lymphoma 9 protein complex (Homo sapiens, UniProt O00512+P35222)", "T2 sequence (P35222 whole entry)": "T1 sequence (P35222 whole entry)", "T2 sequence (O00512 whole entry)": "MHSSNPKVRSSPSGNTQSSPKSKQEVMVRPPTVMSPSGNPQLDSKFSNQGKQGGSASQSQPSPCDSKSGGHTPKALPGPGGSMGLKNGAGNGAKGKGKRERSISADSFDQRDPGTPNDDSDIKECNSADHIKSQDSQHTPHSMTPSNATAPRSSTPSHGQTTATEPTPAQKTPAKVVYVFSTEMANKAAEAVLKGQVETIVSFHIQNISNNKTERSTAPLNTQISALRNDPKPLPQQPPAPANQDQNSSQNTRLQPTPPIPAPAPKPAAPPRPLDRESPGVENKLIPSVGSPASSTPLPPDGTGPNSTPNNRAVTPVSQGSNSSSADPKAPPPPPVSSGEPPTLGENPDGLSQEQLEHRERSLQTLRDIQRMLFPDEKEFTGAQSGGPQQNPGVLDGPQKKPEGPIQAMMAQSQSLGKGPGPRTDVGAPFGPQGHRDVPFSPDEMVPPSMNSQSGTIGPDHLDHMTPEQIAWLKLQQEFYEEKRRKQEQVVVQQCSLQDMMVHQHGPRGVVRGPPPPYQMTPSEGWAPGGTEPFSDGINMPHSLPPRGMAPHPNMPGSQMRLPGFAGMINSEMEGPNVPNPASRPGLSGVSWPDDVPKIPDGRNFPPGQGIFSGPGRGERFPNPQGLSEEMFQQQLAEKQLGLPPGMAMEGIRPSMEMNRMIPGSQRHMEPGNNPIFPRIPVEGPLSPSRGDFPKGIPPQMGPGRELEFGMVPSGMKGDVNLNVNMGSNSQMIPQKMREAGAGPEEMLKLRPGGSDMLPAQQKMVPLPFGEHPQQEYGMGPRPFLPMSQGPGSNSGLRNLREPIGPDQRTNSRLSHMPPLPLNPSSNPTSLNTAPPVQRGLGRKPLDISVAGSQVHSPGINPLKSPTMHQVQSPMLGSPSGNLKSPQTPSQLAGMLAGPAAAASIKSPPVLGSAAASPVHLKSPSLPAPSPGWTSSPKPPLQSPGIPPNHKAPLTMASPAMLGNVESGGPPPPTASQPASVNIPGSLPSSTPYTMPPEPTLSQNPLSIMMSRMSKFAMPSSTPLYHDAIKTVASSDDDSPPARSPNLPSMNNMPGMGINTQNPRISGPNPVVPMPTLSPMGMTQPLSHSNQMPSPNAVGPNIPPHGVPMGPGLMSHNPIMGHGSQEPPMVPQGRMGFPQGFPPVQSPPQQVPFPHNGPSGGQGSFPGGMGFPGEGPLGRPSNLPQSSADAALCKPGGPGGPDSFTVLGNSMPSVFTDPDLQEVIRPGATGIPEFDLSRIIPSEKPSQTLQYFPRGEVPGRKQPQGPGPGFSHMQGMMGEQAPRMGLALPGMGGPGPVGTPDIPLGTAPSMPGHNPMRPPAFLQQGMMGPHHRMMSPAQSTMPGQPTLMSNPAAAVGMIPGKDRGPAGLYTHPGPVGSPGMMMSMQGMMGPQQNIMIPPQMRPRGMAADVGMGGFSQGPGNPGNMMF", "assay": "Inhibition of Flag-tagged beta-Catenin (unknown origin)/Flag-tagged BCL9 (unknown origin) protein-protein interaction assessed as inhibition constant by ELISA assay", "assay_type": "protein-complex assay"}, "[10]": {"biological_target": "T3, TCF4-CTNNB1 complex (Homo sapiens, UniProt P15884+P35222)", "T3 sequence (P35222 whole entry)": "T1 sequence (P35222 whole entry)", "T3 sequence (P15884 whole entry)": "T1 sequence (P15884 whole entry)", "assay": "Inhibition of wild type beta-Catenin/TCF4 protein-protein interaction in human Hep3B cells incubated for 24 hrs by TOPFLASH reporter assay", "assay_type": "cell-based"}, "[11]": {"assay": "Inhibition of beta-Catenin S33Y mutant/TCF4 protein-protein interaction in human SNU-398 cells incubated for 24 hrs by TOPFLASH reporter assay", "assay_type": "cell-based"}, "[12]": {"biological_target": "T3, TCF4-CTNNB1 complex", "assay": "Inhibition of beta-Catenin (301 to 670 residues)/TCF4 protein-protein interaction in human HCT-116 cells incubated for 20 hrs by TOPFLASH luciferase reporter assay", "assay_type": "cell-based"}, "[13]": {"test_system": "HCT-116", "assay": "Antitumor activity against human HCT-116 cells xenografted with mouse assessed as reduction in tumor size at 100 mg/kg,ip administrated 3 times per week for 11 days", "assay_type": "functional", "set-up": "scale not given: the % may be the effect or the level left", "settings": "time 11 day"}, "[14]": {"test_system": "HCT-116", "assay": "Antitumor activity against human HCT-116 cells xenografted with mouse assessed as reduction in tumor size at 20 mg/kg,ip administrated 3 times per week for 11 days", "assay_type": "functional", "set-up": "scale not given: the % may be the effect or the level left", "settings": "time 11 day"}},
  "data": [
    {"compound": "CCOC(=O)CC[C@H](NC(=O)[C@H](CC(=O)OCC)NC(=O)[C@H](Cc1ccc2ccccc2c1)NC(=O)Cc1cc2cc(Cl)ccc2[nH]1)C(=O)OC", "values": [
      {"measurement": "IC50", "setting": "[1]", "result": 28.7, "unit": "µM"},
      {"measurement": "IC50", "setting": "[2]", "result": 10, "unit": "µM"},
      {"measurement": "IC50", "setting": "[3]", "result": 10, "unit": "µM"}
    ]},
    {"compound": "COc1c(CC(C)OC(=O)c2c(C)cc(O)cc2C)c2c3c(CC(C)OC(=O)c4c(C)cc(O)cc4O)c(OC)c(=O)c4c(O)cc(OC)c(c5c(OC)cc(O)c(c1=O)c52)c43", "note": "(centres undefined)", "values": [
      {"measurement": "IC50", "setting": "[4]", "result": 4.1, "unit": "µM"},
      {"measurement": "IC50", "setting": "[5]", "result": 10, "unit": "µM"}
    ]},
    {"compound": "C=C1C(=O)C23[C@H](O)C[C@@H]4C(C)(C)[C@@H](OC(C)=O)CC[C@@]4(C)[C@@H]2[C@@H]2O[C@@H]2C1[C@H]3O", "note": "(some centres undefined)", "values": [
      {"measurement": "Activity", "setting": "[6]", "result": ">95", "unit": "%"},
      {"measurement": "Activity", "setting": "[7]", "result": 10, "unit": "%"},
      {"measurement": "Activity", "setting": "[8]", "result": ">95", "unit": "%"}
    ]},
    {"compound": "CC(C)c1cc2c(c(O)c1O)[C@@]1(C(=O)O)CCCC(C)(C)C1CC2", "note": "(some centres undefined)", "values": [
      {"measurement": "Ki", "setting": "[9]", "result": 3.3, "unit": "µM"}
    ]},
    {"compound": "O=C(Nc1cnn(Cc2ccc(F)cc2)c1)C1CC1c1ccccc1", "note": "(centres undefined)", "values": [
      {"measurement": "IC50", "setting": "[10]", "result": 25, "unit": "µM"},
      {"measurement": "IC50", "setting": "[11]", "result": 32, "unit": "µM"}
    ]},
    {"compound": "COC(=O)c1cccc(NS(=O)(=O)c2ccc(OC)cc2)c1", "values": [
      {"measurement": "IC50", "setting": "[12]", "result": 0.53, "unit": "µM"}
    ]},
    {"compound": "O=c1ccc2cc(O)c(O)cc2o1", "note": "[ESCULETIN]", "values": [
      {"measurement": "Activity", "setting": "[13]", "result": 64, "unit": "%"},
      {"measurement": "Activity", "setting": "[14]", "result": 44, "unit": "%"}
    ]}
  ]
}
